Results from patent US10781224B2, “Bis(oxymethyl)phosphinic acid and biogenic metal salts thereof as regulators of plant growth and development” (priority 2016, dated 2020).

Test system: rice (Diamant variety)
Assay: Rice seed treatment with BHMPA salts: germinating power
Type: in vivo
Conditions: for Mass, wet, root / Mass, wet, root, + % to control / Mass, wet, sprout / Mass, wet, sprout, + % to control / Length, root / Length, root, + % to control / Length, sprout / Length, sprout, + % to control / Mass, dry, root / Mass, dry, root, + % to control / Mass, dry, sprout / Mass, dry, sprout, + % to control: rice seed treatment
How it was run: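 Seeds (50 per Petri dish on two layers of filter paper) soaked 1 h in BHMPA or its Ca, Mg, Na, Co, Mn, Cu or Zn salts at 1·10^−6-1·10^−12%, with water controls. Germination energy read on day 4, germination on day 8 (wheat) or day 7 (rice, corn), as % means of four replicates. Germinating power taken as root and sprout length plus wet and dry mass per 100 seedlings.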

[1] = experimental solution 1 · 10^−7%
[2] = experimental solution 1 · 10^−8%
[3] = experimental solution 1 · 10^−9%
[4] = experimental solution 1 · 10^−10%
[5] = experimental solution 1 · 10^−11%
[6] = experimental solution 1 · 10^−12%
[7] = rice, vs control, 1·10^−9% solution

Compound: O=P([O-])(CO)CO.O=P([O-])(CO)CO.[Zn+2] [Zn-salt, Zinc BHMPA Salt]
- Mass, wet, root [1]: 1.21 g/100 plantlings
- Mass, wet, root, + % to control [1]: 44%
- Mass, wet, sprout [1]: 2.10 g/100 plantlings
- Mass, wet, sprout, + % to control [1]: 44%
- Length, root [2]: 6.8 cm
- Length, root, + % to control [2]: 26%
- Length, sprout [2]: 3.1 cm
- Length, sprout, + % to control [2]: 29%
- Mass, dry, root [2]: 0.24 g/100 plantlings
- Mass, dry, root, + % to control [2]: 41%
- Mass, dry, sprout [2]: 0.28 g/100 plantlings
- Mass, dry, sprout, + % to control [2]: 27%
- Mass, wet, root [2]: 1.29 g/100 plantlings
- Mass, wet, root, + % to control [2]: 53.5%
- Mass, wet, sprout [2]: 2.27 g/100 plantlings
- Mass, wet, sprout, + % to control [2]: 55%
- Length, root [3]: 7.0 cm
- Length, root, + % to control [3]: 30%
- Length, sprout [3]: 3.6 cm
- Length, sprout, + % to control [3]: 50%
- Mass, dry, root [3]: 0.27 g/100 plantlings
- Mass, dry, root, + % to control [3]: 59%
- Mass, dry, sprout [3]: 0.33 g/100 plantlings
- Mass, dry, sprout, + % to control [3]: 50%
- Mass, wet, root [3]: 1.32 g/100 plantlings
- Mass, wet, root, + % to control [3]: 57%
- Mass, wet, sprout [3]: 2.31 g/100 plantlings
- Mass, wet, sprout, + % to control [3]: 58%
- Length, root [4]: 6.9 cm
- Length, root, + % to control [4]: 28%
- Length, sprout [4]: 3.2 cm
- Length, sprout, + % to control [4]: 33%
- Mass, dry, root [4]: 0.25 g/100 plantlings
- Mass, dry, root, + % to control [4]: 47%
- Mass, dry, sprout [4]: 0.31 g/100 plantlings
- Mass, dry, sprout, + % to control [4]: 41%
- Mass, wet, root [4]: 1.26 g/100 plantlings
- Mass, wet, root, + % to control [4]: 50%
- Mass, wet, sprout [4]: 2.17 g/100 plantlings
- Mass, wet, sprout, + % to control [4]: 49%
- Length, root [5]: 6.7 cm
- Length, root, + % to control [5]: 24%
- Length, sprout [5]: 2.8 cm
- Length, sprout, + % to control [5]: 17%
- Mass, dry, root [5]: 0.22 g/100 plantlings
- Mass, dry, root, + % to control [5]: 29%
- Mass, dry, sprout [5]: 0.29 g/100 plantlings
- Mass, dry, sprout, + % to control [5]: 32%
- Mass, wet, root [5]: 1.19 g/100 plantlings
- Mass, wet, root, + % to control [5]: 42%
- Mass, wet, sprout [5]: 2.09 g/100 plantlings
- Mass, wet, sprout, + % to control [5]: 43%
- Length, root [6]: 5.9 cm
- Length, root, + % to control [6]: 9%
- Length, sprout [6]: 2.7 cm
- Length, sprout, + % to control [6]: 12.5%
- Mass, dry, root [6]: 0.19 g/100 plantlings
- Mass, dry, root, + % to control [6]: 12%
- Mass, dry, sprout [6]: 0.25 g/100 plantlings
- Mass, dry, sprout, + % to control [6]: 14%
- Mass, wet, root [6]: 1.05 g/100 plantlings
- Mass, wet, root, + % to control [6]: 25%
- Mass, wet, sprout [6]: 1.70 g/100 plantlings
- Mass, wet, sprout, + % to control [6]: 16%
- dry mass of the roots increased by [7]: 59%
- dry mass of the sprouts increased by [7]: 50%
- length of the root increased by [7]: 30%
- length of the sprout increased by [7]: 50%
- wet mass of the roots increased by [7]: 57%
- wet mass of the sprouts increased by [7]: 58%
